We go through eleven compounds from US9376442B2, “Methylpyrrolopyrimidinecarboxamides” (Takeda GmbH, priority 2009, dated 2016).

The assay addresses T1, PDE5A1 (Homo sapiens, UniProt O76074).
T1 construct: from tissue; host or cells: human platelets from fresh donor blood (10,000 x g supernatant of sonicated lysate)
Description: Inhibition of type 5 phosphodiesterase (PDE5) activity, modified SPA test with human platelet lysate. The following applies: 0.5 μM cGMP, read-out: PDE5A1 inhibitory values [measured as −log IC50 (mol/l)] (converted). In kind it is biochemical. Put shortly: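 Scintillation proximity assay with [3H]cGMP tracer at 0.5 μM total cGMP, stopped after 15 min with beads containing IBMX. PDE3 and PDE2 activities suppressed with motapizone (1 μM) and a PDE2 inhibitor (10 nM). Human platelet supernatant served as the enzyme, with compound preincubated 5 min at 37° C; IC50 values from concentration-effect curves.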

Structures are written as SMILES.

For `CC(=O)N1CCC(NC(=O)c2c(C)[nH]c3c(-c4cc(C)c(F)cc4OCC4CC4)ncnc23)CC1` [Example E119, N-(1-Acetylpiperidin-4-yl)-4-[2-(cyclopropylmethoxy)-4-fluoro-5-methylphenyl]-6-methyl-5H-pyrrolo[3,2-d]pyrimidine-7-carboxamide], the IC50 is less than 1 nM.

With `CCC(=O)N1CCC(NC(=O)c2c(C)[nH]c3c(-c4cc(C)c(F)cc4OCC4CC4)ncnc23)CC1` [Example E120, 4-[2-(Cyclopropylmethoxy)-4-fluoro-5-methylphenyl]-6-methyl-N-(1-propanoylpiperidin-4-yl)-5H-pyrrolo[3,2-d]pyrimidine-7-carboxamide], the IC50 is less than 1 nM.

`COCC(=O)N1CCC(NC(=O)c2c(C)[nH]c3c(-c4cc(C)c(F)cc4OCC4CC4)ncnc23)CC1` [Example E121, 4-[2-(Cyclopropylmethoxy)-4-fluoro-5-methylphenyl]-N-[1-(methoxyacetyl)piperidin-4-yl]-6-methyl-5H-pyrrolo[3,2-d]pyrimidine-7-carboxamide]: the IC50 was less than 1 nM.

Take `CC(=O)N[C@H]1CC[C@H](NC(=O)c2c(C)[nH]c3c(-c4cc(C)c(F)cc4OCC4CC4)ncnc23)CC1` [Example E122, N-[trans-4-(Acetylamino)cyclohexyl]-4-[2-(cyclopropylmethoxy)-4-fluoro-5-methylphenyl]-6-methyl-5H-pyrrolo[3,2-d]pyrimidine-7-carboxamide]: the IC50 is less than 1 nM.

For `CCC(=O)N[C@H]1CC[C@H](NC(=O)c2c(C)[nH]c3c(-c4cc(C)c(F)cc4OCC4CC4)ncnc23)CC1` [Example E123, 4-[2-(Cyclopropylmethoxy)-4-fluoro-5-methylphenyl]-6-methyl-N-[trans-4-(propanoylamino)cyclohexyl]-5H-pyrrolo[3,2-d]pyrimidine-7-carboxamide], the IC50 is less than 1 nM.

Regarding `COCC(=O)N[C@H]1CC[C@H](NC(=O)c2c(C)[nH]c3c(-c4cc(C)c(F)cc4OCC4CC4)ncnc23)CC1` [Example E124, 4-[2-(Cyclopropylmethoxy)-4-fluoro-5-methylphenyl]-N-{trans-4-[(methoxyacetyl)amino]cyclohexyl}-6-methyl-5H-pyrrolo[3,2-d]pyrimidine-7-carboxamide], the IC50 is less than 1 nM.

As for `CC(=O)N[C@H]1CC[C@@H](NC(=O)c2c(C)[nH]c3c(-c4cc(C)c(F)cc4OCC4CC4)ncnc23)CC1` [Example E125, N-[cis-4-(Acetylamino)cyclohexyl]-4-[2-(cyclopropylmethoxy)-4-fluoro-5-methylphenyl]-6-methyl-5H-pyrrolo[3,2-d]pyrimidine-7-carboxamide], the IC50 was less than 1 nM.

Turning to `CCC(=O)N[C@H]1CC[C@@H](NC(=O)c2c(C)[nH]c3c(-c4cc(C)c(F)cc4OCC4CC4)ncnc23)CC1` [Example E126, 4-[2-(Cyclopropylmethoxy)-4-fluoro-5-methylphenyl]-6-methyl-N-[cis-4-(propanoylamino)cyclohexyl]-5H-pyrrolo[3,2-d]pyrimidine-7-carboxamide], the IC50 is less than 1 nM.

As to `COCC(=O)N[C@H]1CC[C@@H](NC(=O)c2c(C)[nH]c3c(-c4cc(C)c(F)cc4OCC4CC4)ncnc23)CC1` [Example E127, 4-[2-(Cyclopropylmethoxy)-4-fluoro-5-methylphenyl]-N-{cis-4-[(methoxyacetyl)amino]cyclohexyl}-6-methyl-5H-pyrrolo[3,2-d]pyrimidine-7-carboxamide], the IC50 is less than 1 nM.

`COc1cc(OCC2CC2)c(-c2ncnc3c(C(=O)NC4CCN(C(C)=O)CC4)c(C)[nH]c23)cc1F` [Example E131, N-(1-Acetylpiperidin-4-yl)-4-[2-(cyclopropylmethoxy)-5-fluoro-4-methoxyphenyl]-6-methyl-5H-pyrrolo[3,2-d]pyrimidine-7-carboxamide]: the IC50 is less than 1 nM.

Take `CCC(=O)N1CCC(NC(=O)c2c(C)[nH]c3c(-c4cc(F)c(OC)cc4OCC4CC4)ncnc23)CC1` [Example E132, 4-[2-(Cyclopropylmethoxy)-5-fluoro-4-methoxyphenyl]-6-methyl-N-(1-propionylpiperidin-4-yl)-5H-pyrrolo[3,2-d]pyrimidine-7-carboxamide]: the IC50 was less than 1 nM.
